Measurements: US20170305912A1, “PROCESS FOR THE PREPARATION OF 3-PHENYL/HETEROARYL-6-PHENOXY-8-ALKYLAMINO-IMIDAZO[1,2-B]PYRIDAZINE DERIVATIVES” (Bayer Pharma Aktiengesellschaft, priority 2014, published 2017)

Test: Particle size distribution in a dry dispersion (Sympatec Helos, method AM-PE 69)
Type: physicochemical
Settings: cumulative undersize distribution by volume
Method: It turned out that the crystalline form of N-cyclopropyl-4-{6-(2,3-difluor-4-methoxyphenoxy)-8-[(3,3,3-trifluorpropyl)amino]imidazo[1,2-b]pyridazin-3-yl}-2-methylbenzamide prepared by the method of the present invention comprising steps (a) to (g), supra, is characterized by an advantageous particle size distribution. […] The particle size distribution was determined in a dry dispersion using the device “Sympatec Helos” and the method “AM-PE 69” (Pharmdoss).
Batch Nos. 1 to 5 were prepared by the method of the present invention comprising steps (a) to (c), supra. In case of Batch Nos. 2 to 5, the preparation method comprised the additional steps (d) to (g) (in case of Batch No. 1 steps (d) to (g) were not applied).
It can be clearly seen that the particles of Batch Nos. 2 to 5 are smaller than the particles of Batch No. 1 and the distribution is more uniform. In case of Batch Nos. 2 to 5, further micronization of the particles might not be necessary in order to increase the solubility or bioavailability of the final drug.

[1] = listed as 2, prepared with steps (d) to (g)
[2] = prepared without steps (d) to (g)
[3] = listed as 4, prepared with steps (d) to (g)
[4] = listed as 5, prepared with steps (d) to (g)

X10 (particle size distribution) [3] [μm]	X50 (particle size distribution) [3] [μm]	X90 (particle size distribution) [3] [μm]	X10 (particle size distribution) [4] [μm]	X50 (particle size distribution) [4] [μm]	X90 (particle size distribution) [4] [μm]	X10 (particle size distribution) (prepared with steps (d) to (g)) [μm]	X50 (particle size distribution) (prepared with steps (d) to (g)) [μm]	X90 (particle size distribution) (prepared with steps (d) to (g)) [μm]	Molecule	X10 (particle size distribution) [1] [μm]	X50 (particle size distribution) [1] [μm]	X90 (particle size distribution) [1] [μm]	X10 (particle size distribution) [2] [μm]	X50 (particle size distribution) [2] [μm]	X90 (particle size distribution) [2] [μm]
–	–	–	–	–	–	–	–	–	6,8-Bis(2,3-difluoro-4-methoxyphenoxy)-3-iodoimidazo[1,2-b]pyridazine [Example 1]	1.4	5.3	36.1	2.0	18.2	249.0
1.3	4.2	13.2	1.2	4.0	12.4	1.2	4.1	9.9	COc1ccc(Oc2cc(Oc3ccc(OC)c(F)c3F)c3ncc(-c4ccc(C(=O)NC5CC5)c(C)c4)n3n2)c(F)c1F [Example 3, 4-[6,8-bis(2,3-difluoro-4-methoxyphenoxy)imidazo[1,2-b]pyridazin-3-yl]-N-cyclopropyl-2-methylbenzamide]	–	–	–	–	–	–
